Measured values published in ChEMBL document CHEMBL1201862, “PubChem BioAssay data set” (2004).
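Briefly, cells in 96-well plates were exposed to five compound concentrations for 48 h, and endpoints were estimated by linear interpolation. GI50: concentration for 50% inhibition of growth.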 Calls of active or inactive are those of the source. Rule as the data show it: active = GI50 up to about 1.1 µM and inactive = higher.

Assays:
Experiment in all cases: NCI anticancer screen, dose series, 48 h
[1] = test system: NCI-H23
[2] = test system: SK-OV-3
[3] = test system: SF-539
[4] = test system: OVCAR-3
[5] = test system: HT-29
[6] = test system: SNB-75
[7] = test system: KM12
[8] = test system: U-251
[9] = test system: TK-10
[10] = test system: HL-60
[11] = test system: 786-0
[12] = test system: UO-31
[13] = test system: NCI-H522
[14] = test system: OVCAR-4
[15] = test system: UACC-62
[16] = test system: CCRF-CEM
[17] = test system: MOLT-4
[18] = test system: SK-MEL-5
[19] = test system: SN12C
[20] = test system: CAKI-1

Measured: GI50

C=C1COC(/C=C(\C)CC/C=C(\C)CCl)C1 (configuration not stated)
inactive: [1] > 100 µM | [2] > 100 µM | [3] > 100 µM | [4] > 100 µM | [5] > 100 µM | [6] > 100 µM | [7] > 100 µM | [8] > 100 µM | [9] > 100 µM | [10] > 100 µM | [11] > 100 µM | [12] > 100 µM | [13] > 100 µM | [14] > 100 µM | [15] > 100 µM | [16] > 100 µM | [17] > 100 µM | [18] > 100 µM | [19] > 100 µM

Cc1nc2n(c1/C=C1/C(=O)Nc3cccc(Cl)c31)CCS2
inactive: [1] 22 µM | [20] 46.3 µM | [2] 16.7 µM | [3] 19 µM | [4] > 100 µM | [5] > 100 µM | [6] 17.5 µM | [7] > 100 µM | [8] 17 µM | [9] 37.7 µM | [10] > 100 µM | [11] 40 µM | [12] 29.8 µM | [13] 21.5 µM | [15] 33.6 µM | [16] 50.9 µM | [17] 35.2 µM | [18] 55.1 µM | [19] 25.1 µM

C=CC[N+]12CN3CN(CN(C3)C1)C2
inactive: [1] 24.2 µM | [20] 20.5 µM | [2] > 100 µM | [3] 16.9 µM | [4] 43.9 µM | [5] 17.9 µM | [6] 25.1 µM | [7] 29 µM | [8] 31.9 µM | [9] 22.6 µM | [10] 35.3 µM | [12] 21 µM | [13] 14.3 µM | [14] 26.2 µM | [15] 27.4 µM | [16] 5.83 µM | [17] 33.4 µM | [18] 36.6 µM | [19] 23.4 µM

CC(C)C(=O)/C=C/c1ccc(Br)cc1
inactive: [1] 17.7 µM | [2] 22.3 µM | [3] 21.1 µM | [4] 14.2 µM | [5] 14.7 µM | [6] 18.1 µM | [7] 13.8 µM | [8] 10.9 µM | [9] 16.9 µM | [10] 10.8 µM | [11] 11.2 µM | [12] 16.4 µM | [13] 12.2 µM | [14] 25.4 µM | [15] 14.5 µM | [16] 3.15 µM | [17] 19.2 µM | [18] 12.7 µM | [19] 14.1 µM

COc1ccc(C2C3C(=O)C=CC(=O)C3[C@@H]2C)cc1OC (some centres not stated)
inactive: [1] > 100 µM | [20] > 100 µM | [2] > 100 µM | [3] > 100 µM | [4] > 100 µM | [5] > 100 µM | [6] 22.1 µM | [7] > 100 µM | [8] > 100 µM | [9] > 100 µM | [10] > 10 µM | [11] 40.7 µM | [12] 73.5 µM | [13] 17.5 µM | [14] > 100 µM | [15] > 100 µM | [16] > 10 µM | [17] 36 µM | [18] > 100 µM

COc1cccc(/C=C2\C(=O)N(C(=O)Cc3ccccc3)N=C2C)c1
inactive: [1] > 100 µM | [20] > 100 µM | [3] > 100 µM | [4] > 100 µM | [5] > 100 µM | [6] > 100 µM | [7] > 100 µM | [8] > 100 µM | [9] > 100 µM | [10] > 100 µM | [11] > 100 µM | [12] > 100 µM | [13] > 100 µM | [14] > 100 µM | [16] > 100 µM | [17] > 100 µM | [18] > 100 µM | [19] > 100 µM

Oc1cc(O)c2c(c1)O[C@H](c1ccc(O)c(O)c1)[C@@H](O)C2 [CIANIDANOL]
inactive: [1] > 100 µM | [20] > 100 µM | [3] > 100 µM | [4] > 100 µM | [5] > 100 µM | [6] > 100 µM | [7] > 100 µM | [8] > 100 µM | [9] > 100 µM | [10] > 100 µM | [11] > 100 µM | [12] > 100 µM | [13] > 100 µM | [14] > 100 µM | [16] > 100 µM | [17] > 100 µM | [18] > 100 µM | [19] > 100 µM

S=P1(N2CCCCC2)Oc2ccc3ccccc3c2-c2c(ccc3ccccc23)O1
inactive: [1] > 81.1 µM | [20] > 44.6 µM | [2] > 92.5 µM | [3] 71.1 µM | [4] 34.9 µM | [5] > 76.2 µM | [6] 31.8 µM | [7] > 100 µM | [8] > 65.2 µM | [10] > 100 µM | [12] > 80.7 µM | [13] 37.8 µM | [14] 27.5 µM | [15] 94.8 µM | [16] > 31.6 µM | [17] > 100 µM | [18] > 71.4 µM | [19] > 100 µM

C(=C/c1nc2ccccc2o1)/c1ccc2c(c1)OCO2
inactive: [1] 22.9 µM | [20] 9.82 µM | [2] 27.2 µM | [3] 16.6 µM | [4] 12.1 µM | [5] 12.8 µM | [6] 21.1 µM | [7] 4.91 µM | [8] 17.5 µM | [10] 16.8 µM | [12] 17 µM | [13] 7.74 µM | [14] 13.1 µM | [15] 2.62 µM | [16] > 67.9 µM | [17] 45.7 µM | [18] 8.41 µM | [19] 58.6 µM

Cc1ccc(N2Cc3c(ccc4ccccc34)OP2(=O)Oc2ccc(Cl)c(C)c2)cc1 (configuration not stated)
inactive: [1] > 100 µM | [20] > 100 µM | [2] > 100 µM | [3] > 100 µM | [4] > 31.6 µM | [5] > 95.1 µM | [6] > 100 µM | [7] > 84.3 µM | [8] > 100 µM | [10] > 100 µM | [12] 20.3 µM | [13] 39.9 µM | [14] > 100 µM | [15] > 100 µM | [16] > 93.3 µM | [17] 14.2 µM | [18] > 100 µM | [19] > 100 µM

CCC1=CCN(c2ccc(C)cc2)OC1c1ccc(OC)cc1 (configuration not stated)
inactive: [1] 39.7 µM | [20] 94.8 µM | [2] > 100 µM | [3] > 100 µM | [4] > 100 µM | [5] 33.8 µM | [6] > 100 µM | [7] > 100 µM | [8] 73.3 µM | [9] > 100 µM | [10] 68.2 µM | [11] > 100 µM | [12] 90.6 µM | [13] 23.6 µM | [14] 92.7 µM | [15] > 100 µM | [16] 56.6 µM | [17] > 100 µM | [19] > 100 µM

CN1CN(c2ccccc2)C2(CCN(CCCC(=O)c3cccs3)CC2)C1=O
inactive: [1] 51.2 µM | [20] 33.1 µM | [2] 38.4 µM | [3] 23.8 µM | [4] 37.2 µM | [5] 21.2 µM | [6] > 100 µM | [7] 75.7 µM | [8] 45.7 µM | [9] 27.7 µM | [10] 52.8 µM | [11] 35.6 µM | [12] 33 µM | [13] > 100 µM | [15] > 100 µM | [16] 30.3 µM | [17] 32.8 µM | [18] 22.9 µM | [19] 48.4 µM

C(=C\Nc1ccc(Oc2ccccc2)cc1)/C=N/c1ccc(Oc2ccccc2)cc1
inactive: [1] 22.2 µM | [20] 18.7 µM | [3] 16.4 µM | [4] 19 µM | [5] 15.9 µM | [6] 17.2 µM | [7] 16.4 µM | [8] 19.1 µM | [9] 18.7 µM | [10] 23.7 µM | [11] 16.6 µM | [12] 18.4 µM | [13] 20 µM | [14] 17.1 µM | [16] 15.3 µM | [17] > 10 µM | [19] 14.8 µM

C=C(NC(=O)C(=C)NC(=O)c1ccc2c(n1)-c1coc(n1)C(=C)NC(=O)C(=C)NC(=O)c1nc(oc1C)C(=C)NC(=O)C(C(C)(C)O)NC(=O)C(=C)NC(=O)c1coc(n1)/C(=C/C)NC(=O)[C@H]([C@@H](C)O)NC(=O)c1csc-2n1)C(N)=O (some centres not stated)
inactive: [1] > 87.5 µM | [20] > 87.5 µM | [3] > 87.5 µM | [4] > 87.5 µM | [5] > 8.75 µM | [6] > 87.5 µM | [7] 66.7 µM | [8] > 87.5 µM | [9] > 87.5 µM | [10] > 87.5 µM | [11] > 87.5 µM | [12] > 87.5 µM | [13] > 87.5 µM | [14] > 87.5 µM | [16] > 87.5 µM | [17] > 87.5 µM | [18] 41.6 µM | [19] > 87.5 µM

Cc1ccccc1N1C(=O)C2C=CC(n3[nH]c(=O)n(Cc4ccccc4)c3=O)CC2C1=O (configuration not stated)
inactive: [1] > 100 µM | [20] > 100 µM | [2] > 100 µM | [3] > 100 µM | [4] > 100 µM | [5] > 100 µM | [6] 70 µM | [7] > 100 µM | [8] > 100 µM | [9] > 100 µM | [10] > 100 µM | [11] > 100 µM | [12] > 100 µM | [13] > 100 µM | [15] > 100 µM | [16] > 100 µM | [17] > 100 µM | [18] > 100 µM | [19] > 100 µM
